What was measured:
PARP = PARP inhibitor potency; cited from earlier work
[1] = tested on: MX-1 cells (BRCA1-deficient); assay: Cell proliferation assay (CellTiter-Glo), MX-1; format: cell-based; details: for IC50: Homo sapiens, MX1, light or radiation study, 10 days incubation
Experimental: (§1) To assess the cytotoxicity of test compounds on BRCA-deficient cells using a CellTiter-Glo assay. MX-1 cells (BRCA1-deficient) and Capan-1 cells (BRCA2-deficient) were seeded in 96-well plates at densities that allowed linear growth for 10 days, and adhered overnight at 37 °C in a humidified atmosphere of 5% CO2. Cells were treated in their recommended growth medium containing varying concentrations of test compounds. […] After 10 days of incubation, CellTiter-Glo Reagent (Promega, Madison, WI, USA) was added to the plates, which continued to be incubated for 30 min at room temperature. Chemiluminescence values were recorded by a multiplate reader, and IC50 values were calculated using GraphPad Prism 8.0 software.

[2] = Talazoparib UV stability assay (HPLC); format: physicochemical; details: 2.63 mM in methanol, 365 nm, up to 10 min
Experimental: The irradiation times were 1 min, 2 min, 3 min, 4 min, 5 min, and 10 min. The irradiated solution was transferred to a volumetric flask and diluted to the same volume with methanol. Then HPLC analysis was performed to detect the compound peak area. […] California, CA, USA) using a mobile phase A (water) and mobile phase B (acetonitrile (ACN)) to elute. The gradient changed from 70% A to 30% A in 10 min, then continuing to elute with 30% A for 5 min. The flow rate was 1 mL/min, and the detection wavelength was 220 nm.

[3] = tested on: poly (ADP-ribose) (PAR) polymerization in HeLa cells; assay: Cellular PARylation assay (H2O2-induced PAR polymerization); format: cell-based; details: for IC50: Homo sapiens, 18 h compound, 500 μM H2O2, read-out: Inhibit Polymerization of PAR IC50
Experimental: The cellular PARylation assay evaluated the ability of test compounds to inhibit polymerization of PAR. Hela cells were seeded in 96-well plates (10,000 cells/well) in 200 μL of cell complete medium, and were allowed to adhere for 4 h at 37 °C in a humidified atmosphere of 5% CO2. The medium was then removed from the plates, and the cells were treated with varying concentrations of test compounds for 18 h. 100 μL serum-free medium with 500 μM H2O2 solution was added, and the plate was kept at 37 °C for 5 min. Next, cells were fixed for 20 min with prechilled methanol at −20 °C and were incubated with 60 μL Poly(ADP-ribose) monoclonal antibody (1:2000) (prepared at 1x PBS containing 0.05% Tween-20 with 1% bovine serum albumin) at 37 °C for 2 h, followed by incubation with 60 μL IRDye 800CW goat anti-mouse IgG (diluted to 1:5000) and DNA stain DRAQ5 (1:5000) (prepared at 1× PBS containing 0.05% Tween-20 with 1% bovine serum albumin) at 37 °C for 2 h. The fluorescent signal was normalized with the DRAQ5 signal, and IC50 values were calculated using GraphPad Prism 8.0 software.

[4] = tested on: Capan-1 cells (BRCA2-deficient); assay: Cell proliferation assay (CellTiter-Glo), Capan-1; format: cell-based; details: for IC50: Homo sapiens, CAPAN-1, light or radiation study, 10 days incubation
Experimental: as §1

[5] = UV cleavage test in methanol (HPLC); format: physicochemical; details: 20 μM in methanol, 365 nm UV
Experimental: The compound was dissolved in methanol (20 μM), and the solution were irradiated at 365 nm by using an UV crosslinker. Every minute from 0 to 10 min, aliquot samples (200 μL) were determined on an Agilent Eclipse Plus C18 column (4.6 × 150 mm, 5 μm particle size) using mobile phase A (water) and mobile phase B (ACN) to elute. The gradient changed from 70% A to 30% A in 10 min, continuing to elute with 30% A for 5 min. The flow rate was 1 mL/min and the detection wavelength was 220 nm. The peak areas percentage of the compounds at each time point were plotted against the sampling time.

PARP-1 enzyme = molecular target: T1, PARP-1 enzyme (Homo sapiens, UniProt P09874); assay: PARP-1 enzyme inhibition assay (PARP-1 Chemiluminescent Assay Kit); format: biochemical
T1 construct: purchased BPS 80569
Experimental: A PARP-1 Chemiluminescent Assay Kit (Cat# 80569, BPS, San Diego, CA, USA) was used to detect the ability of compounds to inhibit PARP-1 enzyme activity. All experimental steps followed the operating manual. Firstly, each well was precoated with 25 μL 1× histone mixture that was diluted in PBS by incubation at 4 °C overnight. The wells were blocked by adding 100 μL of blocking buffer, then incubated at room temperature for 90 min. Then 12.5 μL of the prepared 1× PARP assay mixture and 1× activated DNA in 1× PARP buffer were added into each well of the assay plate, and 2.5 μL of compound or solvent control were added at varying concentrations. The reaction was initiated by the addition of 10 μL 1 ng/μL PARP-1 enzyme in 1× PARP buffer at room temperature for 60 min. Next, the reaction solution was added with 25 μL of diluted Streptavidin-HRP (1:50 in blocking buffer) to each well at room temperature for an additional 30 min. Finally, 25 μL of Horseradish Peroxidase (HRP) chemiluminescent substrate A and 25 μL of HRP chemiluminescent substrate B were mixed on ice, and the mixture was added by 50 μL per well. The luminescent signal was measured using a multi-function microplate reader, and IC50 values were calculated using GraphPad Prism 8.0 software.

[6] = Phosphate-buffered saline stability of the photoactivatable prodrug (HPLC); format: physicochemical; details: 20 μM, pH = 7.4 PBS with 10% DMSO, 37 °C, 48 h
Experimental: Twenty μM of the test compound in pH = 7.4 PBS, containing 10% DMSO, were transferred to 13 1 mL volumetric flasks in equal volumes, incubated at 37 °C. The volumetric flasks were taken out at 0 min, 5 min, 10 min, 15 min, 30 min, 1 h, 2 h, 4 h, 8 h, 12 h, 24 h, 48 h, and 7 days, and were frozen at −80 °C. The samples were thawed in sequence and diluted to the same volume with methanol. Then HPLC analysis was performed to detect the compound peak area. Samples were determined on an Agilent Eclipse Plus C18 column (4.6 × 150 mm, 5 μm particle size; California, CA, USA) using a mobile phase A (water) and mobile phase B (ACN) to elute. The gradient changed from 70% A to 30% A in 10 min, continuing to elute with 30% A for 5 min. The flow rate was 1 mL/min, and the detection wavelength was 220 nm.

[7] = UV cleavage test in culture medium DMEM in 96-well plate (HPLC); format: physicochemical; details: 10 μM in DMEM, 365 nm, 3 min
Experimental: Therefore, we tested the Capan-1 cells that could tolerate a longer UV irradiation duration. […] We simulated the same cytotoxicity experimental conditions to evaluate the photolysis of 10 μΜ compound 3 (10 μM is the starting concentration of compound 3 in cytotoxicity experiments) in a 96-well plate.
Supplementary Materials: Design, Synthesis and In Vitro Evaluation of the […]
Jiaguo Li 1, 2, Dian Xiao 2, Lianqi Liu 2, Fei Xie 2, Wei Li 2, Wei Sun 1,*, Xiaohong Yang 1,*, and Xinbo Zhou 2,* […]
wavelength scanning; (B) Local UV/Vis absorption spectra with a wavelength range of 290-500 nm. Compound […]
Introduction of the PPG into the parent compound's molecular structure leads to increased light absorption around 365 nm. Wavelengths shorter than 300 nm is highly energetic and can easily damage tissues and cells. Therefore, 365 nm was considered as the optimal wavelength for deprotection.
Figure S2. UV-cleavage test on the Compound 3 in culture medium DMEM. Compound 3 were dissolved in DMEM medium containing 0.1 %DMSO and added to 96-well plates at a final concentration of 10 μM. After being irradiated for 1 min and 3 min at 365 nm respectively, the samples were analyzed by HPLC. The peak area is plotted against the irradiation time. […]

[8] = UV+, compound irradiated 20 min at 365 nm before addition to cells

T1 sequence (P09874 whole entry): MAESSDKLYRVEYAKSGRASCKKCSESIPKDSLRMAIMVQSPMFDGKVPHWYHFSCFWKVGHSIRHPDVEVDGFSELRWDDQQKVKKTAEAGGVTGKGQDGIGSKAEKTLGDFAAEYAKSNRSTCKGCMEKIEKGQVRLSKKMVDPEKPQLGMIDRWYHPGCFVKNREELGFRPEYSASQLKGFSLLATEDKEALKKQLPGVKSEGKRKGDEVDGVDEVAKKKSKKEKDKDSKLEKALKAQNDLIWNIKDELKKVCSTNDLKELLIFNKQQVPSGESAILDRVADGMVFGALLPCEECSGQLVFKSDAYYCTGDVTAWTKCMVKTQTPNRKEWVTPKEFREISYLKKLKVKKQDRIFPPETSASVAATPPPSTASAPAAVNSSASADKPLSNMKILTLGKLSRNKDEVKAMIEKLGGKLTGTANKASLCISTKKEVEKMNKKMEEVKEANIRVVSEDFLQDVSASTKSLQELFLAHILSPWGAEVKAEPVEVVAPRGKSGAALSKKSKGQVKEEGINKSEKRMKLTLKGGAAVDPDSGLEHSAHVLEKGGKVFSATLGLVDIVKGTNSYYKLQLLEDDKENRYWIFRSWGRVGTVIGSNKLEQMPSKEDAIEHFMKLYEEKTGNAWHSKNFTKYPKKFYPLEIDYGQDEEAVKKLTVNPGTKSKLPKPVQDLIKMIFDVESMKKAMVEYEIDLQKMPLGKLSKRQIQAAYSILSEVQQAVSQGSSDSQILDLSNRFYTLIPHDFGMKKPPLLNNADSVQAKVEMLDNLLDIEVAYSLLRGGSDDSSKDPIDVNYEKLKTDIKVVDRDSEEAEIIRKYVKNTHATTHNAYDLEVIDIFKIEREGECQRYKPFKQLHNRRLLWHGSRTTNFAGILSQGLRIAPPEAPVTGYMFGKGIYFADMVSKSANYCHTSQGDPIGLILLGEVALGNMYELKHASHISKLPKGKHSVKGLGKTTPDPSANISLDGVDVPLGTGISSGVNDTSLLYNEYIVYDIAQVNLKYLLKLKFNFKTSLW

Cn1ncnc1[C@H]1c2n[nH]c(=O)c3cc(F)cc(c23)N[C@@H]1c1ccc(F)cc1 [Talazoparib, reference compound]
IC50 ([1]; 240 h, UV-, no irradiation): 15 nM
UV stability (HPLC peak area) [2]: no significant loss
IC50 ([4]; 240 h, UV-, no irradiation): 3 nM

Cn1ncnc1[C@H]1c2nn(Cc3cc4c(cc3[N+](=O)[O-])OCO4)c(=O)c3cc(F)cc(c23)N[C@@H]1c1ccc(F)cc1 [compound 3, (8S,9R)-5-Fluoro-8-(4-fluorophenyl)-9-(1-methyl-1H-1,2,4-triazol-5-yl)-2-((6-nitrobenzo[d][1,3]dioxol-5-yl)methyl)-2,7,8,9-tetrahydro-3H pyrido[4,3,2-de]phthalazin-3-one]
IC50 ([1]; 240 h, UV-, no irradiation): 1870 nM
IC50 ([1]; UV+, 365 nm irradiation of cells 1 min after 1 h incubation): 577 nM
inhibitory activity on MX-1 cells after UV irradiation versus non-irradiated group ([1]; UV 1 min vs no UV): approximately three times higher
irradiation time to complete release (photolysis) [5]: 3 min
IC50 (PARP-1 enzyme): 1920 nM
reduction of PARP-1 inhibitory activity versus Talazoparib (PARP-1 enzyme; ratio of IC50 values, compound 3 vs Talazoparib): 380 times
stability in PBS (HPLC peak area) [6]: did not show significant changes
IC50 [3]: 329 nM
decrease of PARylation inhibitory activity versus Talazoparib ([3]; ratio of IC50 values): ≥ 658 times
IC50 ([4]; 240 h, UV-, no irradiation): 863 nM
IC50 ([4]; UV+, 365 nm irradiation of cells 3 min after 1 h incubation): 92 nM
inhibitory activity on Capan-1 cells after UV irradiation versus non-irradiated group ([4]; UV 3 min vs no UV): nine times higher
release after UV irradiation under cytotoxicity experimental conditions [7]: not released completely

C[C@H](NC(=O)OC(C)(C)C)C(=O)OCc1cc2c(cc1[N+](=O)[O-])OCO2 [compound 6, (6-Nitrobenzo[d][1,3]dioxol-5-yl)methyl (tert-butoxycarbonyl)-L-alaninate]
IC50 ([1]; 240 h, UV-, no irradiation): > 10000 nM
IC50 [1, 8]: > 10000 nM
irradiation time to complete release (photolysis) [5]: ≤ 20 min
IC50 ([4]; 240 h, UV-, no irradiation): > 10000 nM
IC50 [4, 8]: > 10000 nM
